{"source": "paper PMC8820799", "about": "“Angiogenesis and anti-leukaemia activity of novel indole derivatives as potent colchicine binding site inhibitors” (Journal of Enzyme Inhibition and Medicinal Chemistry, 2022)", "key": {"[1]": {"test_system": "Jurkat", "assay": "CCK-8 assay, Jurkat", "type": "cell-based", "settings": "Homo sapiens, leukaemia, ALL, CCK-8, 72 h", "experimental": "(§1) Cells were seeded in 96-well plates at a density of 8 × 10^3 per well and exposed to different concentrations of compounds for 72 h. Subsequently, 10 µL CCK8 solution was added to each well and co-incubated for another 3–4 h at 37 °C. The absorbance was determined at 450 nm. Data was calculated with GraphPad Prism5 software.[32]"}, "[2]": {"test_system": "K562 cells", "assay": "Immunofluorescence staining of microtubule network", "type": "cell-based", "settings": "K562, 0.1 uM and 0.3 uM; Figure 4F"}, "[3]": {"target": "T1, Tubulin isolated from porcine brain tissue (Sus scrofa, UniProt P02550+P02554)", "T1 construct": "purchased Cytoskeleton (Denver, CO), via Beyotime, China; host or cells: porcine brain tissue", "T1 sequence (P02554 whole entry)": "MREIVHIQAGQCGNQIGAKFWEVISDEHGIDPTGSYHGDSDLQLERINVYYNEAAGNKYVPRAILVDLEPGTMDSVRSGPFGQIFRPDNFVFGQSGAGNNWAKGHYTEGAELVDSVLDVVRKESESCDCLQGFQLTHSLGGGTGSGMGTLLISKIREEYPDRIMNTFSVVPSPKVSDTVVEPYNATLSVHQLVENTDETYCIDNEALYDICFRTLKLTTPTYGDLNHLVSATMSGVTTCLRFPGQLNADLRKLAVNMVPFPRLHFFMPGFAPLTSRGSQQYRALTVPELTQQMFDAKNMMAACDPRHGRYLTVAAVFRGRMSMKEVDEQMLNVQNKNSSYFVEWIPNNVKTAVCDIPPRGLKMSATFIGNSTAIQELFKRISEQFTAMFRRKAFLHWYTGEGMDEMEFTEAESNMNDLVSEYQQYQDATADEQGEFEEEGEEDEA", "T1 sequence (P02550 whole entry)": "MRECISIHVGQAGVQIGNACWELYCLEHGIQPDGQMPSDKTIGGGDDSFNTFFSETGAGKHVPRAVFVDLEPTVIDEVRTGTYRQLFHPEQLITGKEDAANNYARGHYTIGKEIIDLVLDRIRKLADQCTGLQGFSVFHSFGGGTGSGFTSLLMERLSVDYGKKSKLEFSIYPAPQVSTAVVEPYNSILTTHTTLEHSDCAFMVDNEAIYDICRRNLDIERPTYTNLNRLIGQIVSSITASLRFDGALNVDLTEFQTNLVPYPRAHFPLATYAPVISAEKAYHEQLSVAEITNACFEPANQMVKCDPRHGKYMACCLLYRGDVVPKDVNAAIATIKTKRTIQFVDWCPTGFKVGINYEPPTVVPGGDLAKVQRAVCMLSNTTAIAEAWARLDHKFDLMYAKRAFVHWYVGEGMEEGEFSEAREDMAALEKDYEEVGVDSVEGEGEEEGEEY", "assay": "Tubulin polymerisation assay", "type": "biochemical", "settings": "triplicate, mean ± SD; read-out: Tubulin (tubulin inhibitory polymerisation IC50)", "experimental": "Tubulin polymerisation was determined with the tubulin polymerisation assay kit (Cytoskeleton, Denver, CO which was purchased from Cytoskeleton, Beyotime, China. Tubulin isolated from porcine brain tissue was used in this commercial kit.) It is based on the principal that light is scattered by microtubules to an extent that is proportional to the concentration of the microtubule polymer. Compounds that interact with tubulin will alter the polymerisation of tubulin, and this can be detected using a spectrophotometer. Tubulin polymerisation dynamics was monitored through measuring the change of absorbance at 340 nm every 2 min for 30 min at 37 °C on a spectrophotometer."}, "[4]": {"test_system": "leukaemia cell lines", "assay": "Anti-proliferation against a variety of leukaemia cell lines (CCK-8)", "type": "cell-based", "settings": "seven leukaemia cell lines; read-out: IC50 against a variety of leukaemia cell lines (range over panel)", "experimental": "as §1"}, "[5]": {"test_system": "HUVEC", "assay": "Tube formation assay", "type": "cell-based, human", "settings": "0.1, 1 and 10 µM", "experimental": "Matrigel matrix (Basement Membrane Matrix, BD Biosciences) was thawed at 4 °C overnight. At this point, 50 µL of the matrix solution was added to each well of a 96-well plate. After gelling at 37 °C for 30 min, the matrix was overlaid with 200 µL of medium containing 1 × 10^5 HUVECs per well, which was incubated for 6 h to allow capillary tubes to form. Different concentrations of compounds were added in the cultures and incubated for 6 h to monitor the morphological changes of cells and tubes. The disappearance of existing vasculature was photographed at 10х magnification. Values were expressed as percent change form control cultures grown with complete medium.[36] Standard dimensional parameters (percent area covered by HUVECs and total length of the HUVEC network per field) were noted, and standard topological parameters (number of meshes and branching points per field) were estimated."}, "[6]": {"test_system": "CCRF-CEM", "assay": "CCK-8 assay, CCRF-CEM", "type": "cell-based", "settings": "Homo sapiens, leukaemia, ALL, CCK-8, 72 h", "experimental": "as §1"}, "[7]": {"test_system": "THP-1", "assay": "CCK-8 assay, THP-1", "type": "cell-based", "settings": "Homo sapiens, leukaemia, AML, CCK-8, 72 h", "experimental": "as §1"}, "[8]": {"test_system": "K562", "assay": "CCK-8 assay, K562", "type": "cell-based", "settings": "Homo sapiens, leukaemia, CML, CCK-8, 72 h", "experimental": "as §1"}, "[9]": {"test_system": "HUVEC", "assay": "Wound healing migration assay", "type": "cell-based, human", "settings": "0.1, 1 and 10 µM"}, "[10]": {"assay": "In vitro metabolic stability, mouse liver microsomes", "type": "in vitro ADME", "settings": "0.4 mg/mL protein", "experimental": "The metabolic stability assay was performed by incubating the test compound in mouse or human liver microsomes (XenoTech, lot no. 1510256) at 37 °C and a protein concentration of 0.4 mg/mL. Microsomal incubations were performed at a substrate concentration of 0.5 µM. Data analysis. Species scaling factors were used to convert the in vitro CLint(mL/min/mg) to an in vivo CLint(mL/min/kg)."}, "[11]": {"test_system": "K562 cells", "assay": "Western blot of apoptosis-related proteins", "type": "cell-based", "settings": "K562, 48 h", "experimental": "Exponentially growing K562 cells in were seeded in […] at a density of 6х10^5/dish and incubated overnight. The cultured cells were treated with indicated concentrations of 29e for 48 h. After the cells were washed with cold PBS, the supernatant was removed. Cells were scraped off the tissue culture dish, and then lysed by 100 µl ice-cold RIPA lysis buffer for 20 min with occasional agitation. The supernatant was collected by centrifuging at 12,000 g for 10 min at 4 °C. The protein concentration in the supernatant was determined by using a BCA protein assay kit. After BCA analysis to quantify proteins, samples were prepared in SDS-PAGE loading buffer, then boiled for 10 min at 100 °C. Western blot analyses were conducted after separation by SDS-PAGE electrophoresis and transfer to nitrocellulose filter (NC) membranes. Immunoblotting was performed according to the antibody manufacturers’ recommendations. Antibodies: caspase-3, caspase-9, PARP and β-actin."}}}
{"smiles": "COc1cc(C(=O)/C=C/c2cn(S(=O)(=O)c3ccccc3)c3ccccc23)cc(OC)c1OC", "note": "[Compound 29e, (E)-3–(1-(Phenylsulfonyl)-1H-indol-3-yl)-1–(3,4,5-trimethoxyphenyl)prop-2-en-1-one]", "values": [{"measurement": "IC50", "setting": "[1]", "result": "1220 ± 120", "unit": "nM"}, {"measurement": "Effect on cellular microtubule network", "setting": "[2]", "result": "conspicuous disorder for the microtubule network"}, {"measurement": "IC50", "setting": "[3]", "result": "4800 ± 700", "unit": "nM"}, {"measurement": "IC50", "setting": "[4]", "result": "90 to 1220", "unit": "nM"}, {"measurement": "HUVEC tubule-like networks", "setting": "[5]", "result": "sharply reduced the width and length"}, {"measurement": "IC50", "setting": "[6]", "result": "840 ± 80", "unit": "nM"}, {"measurement": "IC50", "setting": "[7]", "result": "370 ± 30", "unit": "nM"}, {"measurement": "IC50", "setting": "[8]", "result": "90 ± 1", "unit": "nM"}, {"measurement": "HUVEC wound closure / migration", "setting": "[9]", "result": "markedly decreased the closure of wound scratching"}, {"measurement": "microsomal CLint at 0.5 µM", "setting": "[10]", "result": 77, "unit": "µL/min/mg"}, {"measurement": "half-life at 0.5 µM", "setting": "[10]; 37 °C, read-out: Degradation half-life Mouse", "result": 1, "unit": "h"}, {"measurement": "Expression of caspase-3, caspase-9 and PARP", "setting": "[11]", "result": "decreased efficiently"}, {"measurement": "Expression of cleaved caspase-3 and PARP", "setting": "[11]", "result": "up-regulation of cleaved caspase-3 and PARP"}]}
